From patent US20220362120A1, “STABILIZATION OF RESORCINOL COMPOUNDS IN COSMETIC COMPOSITIONS” (Conopco, Inc., d/b/a UNILEVER, priority 2019, published 2022)

Tests used:
[1] = Color evaluation of 4-alkylresorcinol solutions (visual and L*a*b*, Labscan XE) after 2 weeks at R.T.; type: physicochemical; conditions: for Appearance (visual appearance of solution) / L* / b* / a*: after 2 weeks at R.T. (~20-22° C.), DI water:butylene glycol (4:1); for L*: black (L*=0) to white (L*=100); for b*: blue (b*<0) to yellow (b*>0); for a*: green (a*<0) to red (a*>0)
Procedure: Samples for color evaluation were prepared by dissolving 4-hexylresorcinol (200 mg) or 4-ethylresorcinol (200 mg) in DI water:butylene glycol (4:1; 20 ml) to generate a clear colorless homogeneous solution. A portion of each solution (5 ml) was added to a 20 ml scintilation vial containing either niacinamide (B3) (50 mg), AceMet (acetyl methionine) (50 mg) or B3 (50 mg)+AceMet (50 mg) and monitored @ R.T. (˜20-22° C.). After 2 weeks, the color of each solution was assessed visually and L*a*b* measurements determined experimentally using a Labscan XE instrument (Hunter Associates Labs Inc., Reston, Va.) and processed with Universal Software (version 4.10). The L* parameter measures darkness and lightness and ranges from black (L*=0) to white (L*=100). The a* parameter measures color content and intensity ranging from green (a*<0) to neutral grey (a*=0) to red (a*>0). The b* parameter also measures color content and intensity ranging from blue (b*<0) to neutral grey (b*=0) to yellow (b*>0).

[2] = Quantitation of 4-alkyl resorcinols by HPLC (peak area @ 281 nm vs freshly prepared control); type: physicochemical; conditions: for 4-Alkylresorcinol (% of control): after 2 weeks at R.T. (~20-22° C.), HPLC, mean of duplicates, DI water:butylene glycol (4:1)
Procedure: The amount of 4-alkylresorcinol present in each of the samples used for the color measurements was quantitated after 2 weeks @ R.T. (˜20-22° C.) by high performance liquid chromatography (HPLC). An sample aliquot (100 uL) from each of the color measurement solutions was diluted with DI water:acetonitrile (1:1, 900 uL) to generate test samples (1 ml). An aliquot (10 uL) from each test sample was injected into a Waters 2695 Separations Module, chromatographed and separated on a Restek Pinnacle DB C18 (5 um, 4.6×150 mm) column operated at 30° C. and the 4-alkylresorcinols monitored using a Waters 2996 Photodiode Array Detector set @ 281 nm. The mobile phase consisted of water (A) and acetonitrile (B) and optimum separation was achieved using a gradient from 95:5 (A:B) to 5:95 (A:B) in 20 min, followed by isocratic elution at 5:95 (A:B) for 3 min at a flow rate of 1 ml/min. The chromatographic data was processed using Empower 2 software (Waters Corporation, Milford, Mass.). Standard control samples of 4-alkylresorcinols at 1×, 5× higher and 5× lower concentrations were prepared fresh and immediately analysed; standard curves were generated within the test sample range and linearity was confirmed.
All samples were analyzed in duplicate and the mean value reported. The amount of 4-alkylresorcinol present for each test sample after 2 weeks was determined by measuring the chromatographic peak area under the curve @ 281 nm for the 4-alkylresorcinol and expressed as the percent ratio over the corresponding chromatographic peak area under the curve @ 281 nm for the freshly prepared control sample.

| Compound | Appearance (visual appearance of solution) [1] | L* [1] | b* [1] | a* [1] | color of solution ([1]; freshly prepared solution) | decrease of the level of HR ([2]; HR solution after 2 weeks) [%] | decomposition of HR ([2]; HR solution with addition of B3, after 2 weeks) [%] | 4-Alkylresorcinol (% of control) [2] | decomposition upon HPLC analysis ([2]; freshly prepared solution) |
| --- | --- | --- | --- | --- | --- | --- | --- | --- | --- |
| CCCCCCc1ccc(O)cc1O [1% HR, 4-hexylresorcinol] | reddish-pink | 84.77 | 13.4 | 11.4 | colorless | 40 | 55 | 60 % of control | no decomposition |
| CCc1ccc(O)cc1O [1% ER, 4-ethylresorcinol] | light orange | 82.74 | 39.57 | 6.38 |  |  |  | 96 % of control |  |
